According to patent US20260356849A1, “COMPOUNDS AND METHODS FOR TREATING CANCERS” (CEDARS-SINAI MEDICAL CENTER, priority 2022, published 2026):
“Also recorded” adds a separate entry of the source.

System: CyclinB1
Assay: Cyclin B1 expression by RT-PCR, Western blotting and CHX in HepG2
Format: cell-based
Method: HepG2 cells were treated with DMSO or compound C3 (2-5 μM) for 24 hours. […] Numbers shown below are mean±SE densitometric values.

`CC1(C)Cc2nc3sc4c(=O)n(CC(=O)NCc5ccco5)cnc4c3cc2CO1` [Compound C3, 2-(8,8-Dimethyl-4-oxo-7,10-dihydro-8H-pyrano[3″,4″: 5′,6′]pyrido[3′,2′: 4,5]thieno[3,2-d]pyrimidin-3 (4H)-yl)-N-(2-furylmethyl) acetamide] was tested, and the CyclinB1 content was “increases CyclinB1 content; also recorded: led to cyclin B1 accumulation”, the “CyclinB1 mRNA level” value (HepG2, 2-5 μM, 24 hours) was “increases CyclinB1 mRNA level” and the CyclinB1 protein degradation (HepG2, cycloheximide, 5 μM) was “inhibits its protein degradation”. For the same molecule, the CyclinB1 phosphorylation (associated with nuclear accumulation) was “promotes CyclinB1 phosphorylation”.
